Measurements taken from PubChem BioAssay (NCI).
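The compound was tested at five concentrations on cells cultured in 96-well plates, with a 48-hour exposure period. Here, GI50 denotes the concentration required for 50% inhibition of growth. The concentration for full growth arrest is given as TGI.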

Tests used:
Assay in all cases: NCI-60 cell line screen, 48 h
786-0 renal = tested on: 786-0 renal
A498 renal = tested on: A498 renal
A549 NSCLC = tested on: A549 NSCLC
ACHN renal = tested on: ACHN renal
BT-549 breast = tested on: BT-549 breast
CAKI-1 renal = tested on: CAKI-1 renal
CCRF-CEM leukemia = tested on: CCRF-CEM leukemia
COLO 205 colon = tested on: COLO 205 colon
DU-145 prostate = tested on: DU-145 prostate
EKVX NSCLC = tested on: EKVX NSCLC
HCC-2998 colon = tested on: HCC-2998 colon
HCT-116 colon = tested on: HCT-116 colon
HCT-15 colon = tested on: HCT-15 colon
HOP-62 NSCLC = tested on: HOP-62 NSCLC
HOP-92 NSCLC = tested on: HOP-92 NSCLC
HS 578T breast = tested on: HS 578T breast
IGROV1 ovarian = tested on: IGROV1 ovarian
KM12 colon = tested on: KM12 colon
LOX IMVI melanoma = tested on: LOX IMVI melanoma
M14 melanoma = tested on: M14 melanoma
MALME-3M melanoma = tested on: MALME-3M melanoma
MCF7 breast = tested on: MCF7 breast
MDA-MB-231 breast = tested on: MDA-MB-231 breast
MDA-MB-435 = tested on: MDA-MB-435
NCI-H226 lung = tested on: NCI-H226 lung
NCI-H460 lung = tested on: NCI-H460 lung

What does the source list for `CCN1CCN(S(=O)(=O)c2oc(-c3ccc(Cl)cc3)nc2C#N)CC1`?
GI50 (786-0 renal): 2.78 µM; TGI (786-0 renal): 8.19 µM; GI50 (A498 renal): 29.4 µM; TGI (A498 renal): 82.4 µM; GI50 (A549 NSCLC): 17.8 µM; TGI (A549 NSCLC): 35.1 µM; GI50 (ACHN renal): 1.91 µM; TGI (ACHN renal): 3.42 µM; GI50 (BT-549 breast): 4.87 µM; TGI (BT-549 breast): 18.5 µM; GI50 (CAKI-1 renal): 1.38 µM; TGI (CAKI-1 renal): 2.74 µM; GI50 (CCRF-CEM leukemia): 1 µM; TGI (CCRF-CEM leukemia): 8.75 µM; GI50 (COLO 205 colon): 2.07 µM; TGI (COLO 205 colon): 3.76 µM; GI50 (DU-145 prostate): 7.58 µM; TGI (DU-145 prostate): 21 µM; GI50 (EKVX NSCLC): 16 µM; TGI (EKVX NSCLC): 29.8 µM; GI50 (HCC-2998 colon): 15.8 µM; TGI (HCC-2998 colon): 31.4 µM; GI50 (HCT-116 colon): 2.12 µM; TGI (HCT-116 colon): 6.98 µM; GI50 (HCT-15 colon): 1.76 µM; TGI (HCT-15 colon): 3.92 µM; GI50 (HOP-62 NSCLC): 17.2 µM; TGI (HOP-62 NSCLC): 33.6 µM; GI50 (HOP-92 NSCLC): 2.75 µM; TGI (HOP-92 NSCLC): 10.1 µM; GI50 (HS 578T breast): 20.9 µM; TGI (HS 578T breast): 69.4 µM; GI50 (IGROV1 ovarian): 15.8 µM; TGI (IGROV1 ovarian): 37 µM; GI50 (KM12 colon): 15.7 µM; TGI (KM12 colon): 42.8 µM; GI50 (LOX IMVI melanoma): 1.13 µM; TGI (LOX IMVI melanoma): 2.54 µM; GI50 (M14 melanoma): 3.5 µM; TGI (M14 melanoma): 15.7 µM; GI50 (MALME-3M melanoma): 2.07 µM; TGI (MALME-3M melanoma): 4.12 µM; GI50 (MCF7 breast): 2.3 µM; TGI (MCF7 breast): 10.4 µM; GI50 (MDA-MB-231 breast): 14.5 µM; TGI (MDA-MB-231 breast): 29.1 µM; GI50 (MDA-MB-435): 4.47 µM; TGI (MDA-MB-435): 16.3 µM; GI50 (NCI-H226 lung): 2.46 µM; TGI (NCI-H226 lung): 7.01 µM; GI50 (NCI-H460 lung): 15.8 µM; TGI (NCI-H460 lung): 39.9 µM
